{
  "source": "patent US5965539A",
  "about": "“Inhibitors of prenyl transferases” (Univeristy of Pittsburgh, priority 1996, dated 1999)",
  "test_system": "H-Ras processing",
  "experiment": "Ras processing assay in H-RasF cells (NIH 3T3 transformed with oncogenic H-Ras-CVLS), immunoblot",
  "assay_type": "cell-based",
  "details": "for IC50: whole cells",
  "procedure": "H-RasF cells (45) were seeded on day 0 in 100 mm Dishes (costar) in Dulbecco's modified Eagles medium (GIBCO) and allowed to grow to 40-60% confluency. […] On day 3, cells were washed one time with ice cold PBS and were collected and lysed by incubation for 30-60 min on ice in lysis buffer (41). Lysates were cleared (14,000 rpm, 4° C., 15 min) and supernatants collected. Equal amounts of lysate were separated on a 12.5% SDS-PAGE, transfered to nitrocellulose, and a western blot performed using a anti-Ras antibody (Y13-238, ATCC) or anti-Rap1A antibody (Santa Cruz Biotechnology, Santa Cruz, Calif.). Antibody reactions were visualized using peroxidase-conjugated goat anti-rat IgG for Y13-238 and peroxidase-conjugated goat anti-rabbit IgG for Rap1A and an enhanced chemiluminescence detection system (ECL; Amersham Corp.)\nH-Ras cells (45) and K-Ras4B Cells (32) were kind gifts from Dr. Channing Der and Dr. Adrienne Cox (University of North Carolina, Chapel Hill). Means of obtaining these cell lines will be easily recognized by the skilled practitioner. Cells were seeded on day 0 in 100 mm dishes in Dulbecco's modified Eagles medium supplemented with 10% calf serum and 1% penicillin-streptomycin. […] On day 3, cells were washed and lysed in lysis buffer containing 50 mM HEPES, pH 7.5, 10 mM NaCl, 1% TX-100, 10% glycerol, 5 mM MgCl2, 1 mM EGTA, 25 μg/ml leupeptin, 2 mM PMSF, 2 mM Na3 VO4, 1 mg/ml soybean trypsin inhibitor, 10 μg/ml aprotinin, 6.4 mg/ml Sigma-104® phosphatase substrate. Lysates were cleared (14,000 rpm, 4° C., 15 min) and equal amounts of protein were separated on a 12.5% SDS-PAGE, transferred to nitrocellulose, and immunoblotted using an anti-Ras antibody (Y13-259, ATCC) or an anti-RapIA antibody (SC-65, Santa Cruz Biotechnology, Santa Cruz, Calif.). Antibody reactions were visualized using either peroxidase-conjugated goat anti-rat 1 gG (for Y13-259), or peroxidase-conjugated goat anti-rabbit 1 gG (for Rap1A) and an enhanced chemiluminescence detection (ECL, Amersham Corp.), as described previously (41).",
  "note": "Like-named read-outs stand apart in the source and are kept apart here.",
  "data": [
    {"smiles": "COC(=O)[C@H](CCSC)NC(=O)c1ccc(NC[C@@H](N)CS)cc1-c1ccccc1", "note": "[FTI-277, 4-N-[2(R)-Amino-3-mercaptopropyl]amino-2-phenylbenzoyl methionine methyl ester]", "values": [
      {"measurement": "processing of RasF", "setting": "5 μM, FIG. 2B", "result": "completely blocked"},
      {"measurement": "concentration at which Ras processing was blocked", "setting": "H-RasF cells", "result": 1, "unit": "µM"},
      {"measurement": "IC50", "setting": "Table 5, read-out: In Vivo Processing IC50 H-Ras", "result": 0.1, "unit": "µM"},
      {"measurement": "IC50", "setting": "read-out: H-Ras processing IC50", "result": 0.1, "unit": "µM"}
    ]}
  ]
}
